What was measured:
[1] = Viability of THP-1 cells, MTT assay; assay type: cell-based, Human; details: human, THP-1 cells (monocytes); for viability at 24 h: CBD and CBG alone, treatments reported with the IL6 data, read-out: viability levels
Protocol: (§1) Cell lines were cultured according to standard mammalian tissue culture protocols and sterile technique. Human monocytes THP-1 cells were cultured in RPMI medium 1640. HaCaT cells were cultured in DMEME medium. All media was supplemented with 10% fetal bovine serum, streptomycin ([…]), penicillin (100 U/ml) and Nystatin (12.5 U/ml). Cells were incubated in 5% CO2 at 37° C. All tissue culture cells were maintained in 75 cm^2 cell culture treated flask (Eppendorf) and all the media and supplements were obtained from Biological Industries. Treatment were performed by plating cells in a 96 micro well delta surface plates (Eppendorf) in a starting confluence of 1×10^4 cells/well.
(§2) The viability of the cells following treatment was determined using a commercially available MTT assay kit (Abcam, ab146345) and performed according to manufacturer's instructions. Briefly, cells were seeded in a 96-well plate at a density of 1×10^4 cells/well (n=4) in 100 μl cell specific media. After overnight incubation, cells were exposed to varying concentrations of isolated components (CBD, CBG and PSO, each alone) and combination samples as described in Example 1, in 100 μl of specific media, by adding a stock solution to the medium in amount that provides the indicated concentration (see, Tables 1, 2A and 2B). Then, plates were incubated in a humidified atmosphere containing 5% CO2 in air at 37° C. for 24 hours. According to the MTT standard protocol, after 24 hours treatment, the media was removed, and all cells were incubated with serum-free media containing 0.5 mg/ml MTT for 4 hours at the incubator. The MTT purple crystals formed by the viable cells were dissolved using isopropanol containing 0.04 mol/L HCl. The quantification was determined by measuring the optical density at 570 nm in a spectrophotometer reader (Spark, Tecan). Results are presented as proportional viability (%) by comparing between treated and untreated groups.
(§3) Cytotoxic potential of an extract was determined according to the following criteria:
(§4) Cytotoxic: Viability is reduced to less than 70% of vehicle control.
(§5) Non-cytotoxic: Viability is >70% of vehicle control

THP-1 cells = assay: Viability of THP-1 cells, MTT assay; assay type: cell-based, Human; details: 24 hours
Protocol: as §1, §2, §3, §4, §5

[2] = tested on: TNFα secretion from LPS-stimulated THP-1 cells; assay: TNFα secretion from LPS-stimulated THP-1 cells (HTRF); assay type: cell-based, Human; details: for ratio of TNFα secretion to cells viability: alone; for TNFα secretion (percentage of the control): each alone, highest concentration, FIG. 2A
Protocol: (§6) Human THP-1 monocytes were seeded in a 96-well plate (Eppendorf) at a density of 3×10^5 cells/well (n=4) in 100 μl cell specific media and was differentiated using phorbol-12-myristate 13-acetate (PMA) (Sigma-Aldrich) at a final concentration of 200 nM. PMA supplemented media was removed after 72 hours. Cells were then washed twice with PBS and rested in fresh PMA-free media for further 24 hours in order to obtain phenotypic characteristics of macrophages (Daigneault et al., 2010, PLoS One, 5, e8668).
(§7) After 24 hours, cells were stimulated by Lipopolysaccharides (LPS) at a final concentration of 1μg/ml and were treated with the samples using specific media containing 5% FBS (100 μL of media solution containing the tested materials at the indicated concentration; see, Example 1).
(§8) After 24 hours, the cells supernatants were harvested and diluted up to 5 times in working media to avoid the hook effect. HTRF assays were performed in white 96-well plate (CisBio Bioassays) with a total working volume of 20 μL. All HTRF reagents were purchased from CisBio Bioassays and reconstituted according to the supplier protocols. For each assay 16 μL of diluted supernatants samples were incubated with 4 μL mixed solution containing donor and acceptor antibodies. Antibodies for the detection of TNFα and IL6 were used.
(§9) After 2 hours incubation, HTRF signals were measured using SPARK® multimode microplate reader with an excitation filter at 320 nm and fluorescence wavelength measurement at 620 and 665 nm, an integration delay of 60 μs and an integration time of 400 μs. Results were analyzed with a two-wavelength signal ratio: [intensity (665 nm)/intensity (620 nm)]*104. Calculation and analysis of cytokines release was performed according to the supplier protocols and using the 4PL 1/Y2 formula in GraphPad Prism software.

[3] = tested on: IL6 secretion from LPS-stimulated THP-1 cells; assay: IL6 secretion from LPS-stimulated THP-1 cells (HTRF); assay type: cell-based, Human; details: alone
Protocol: as §6, §7, §8, §9

HaCaT cells [4] = assay: Viability of HaCaT cells, MTT assay; assay type: cell-based; details: alone, FIG. 8A
Protocol: as §1, §2, §3
Cytotoxic: Viability is reduced to less than 70% of vehicle control. […]

HaCaT cells [5] = assay: Cellular ROS production from HaCaT cells in the presence of H2O2 (DCFDA assay); assay type: cell-based; details: each component alone, 5 hours, FIG. 9A
Protocol: Cellular ROS production was measured using a DCFDA assay kit (Abcam, ab113851)) according to the manufacturer's protocol. DCFDA (2′,7′-dichlorofluorescein diacetate), a cell-permeable fluorogenic dye, is deacetylated to a non-fluorescent compound by cellular esterases and later oxidized into highly fluorescent DCF (2′,7′-dichlorofluorescein) by ROS, allowing measurement of hydroxyl, peroxyl and other ROS activity within the cell.
HaCaT cells were seeded at a density of 2.5×10^4 for 24 hours on 96-well plates. After 24 hours, the cells were washed twice with 1× buffer assay and then incubated with 25 μM DCFDA in 1× buffer assay in a 37° C. incubator for 45 minutes. After two washes with 1× buffer assay, the cells were exposed to the tested samples and to 0.25 M H202, each added separately to the medium.
Cell fluorescence in the 96-well plates was measured at 488 nm excitation and 525 nm emission using a Tecan spark plate reader (Tecan US, Inc. Morrisville, NC), 5 hours after the addition of the tested samples or sample combinations.
The control used as reference are cells treated only with H2O2. The results are shown as percentage of the control.

[6] = alone, reported with the TNFα data
[7] = each component alone, all tested concentrations, FIG. 1A-B

Row | SMILES | viability at 24 h [1] | viability at 24 h, 10 µM ([1]; alone, 10 μM, reported with the TNFα data) | viability at 24 h, 20 µM [1, 6] | THP-1 cells viability (THP-1 cells; 20 μM, FIG. 1A) | THP-1 cells viability (THP-1 cells; [7]) | ratio of TNFα secretion to cells viability ([2]; 10 μM) | ratio of TNFα secretion to cells viability ([2]; 20 μM) | ratio of TNFα secretion to cells viability ([2]; lowest concentration, FIG. 2B) | TNFα secretion (percentage of the control) [2] | ratio of IL6 secretion to cells viability ([3]; lowest tested concentration of 10 μM) | toxicity to keratinocyte cells (HaCaT cells [4]; high concentration, e.g. 40 μM) | viability of HaCaT cells (toxicity) (HaCaT cells [4]; higher concentration) | ROS production from HaCaT cells, effect relative to the solvent (ethanol) (HaCaT cells [5]) | ratio of TNFα secretion to cells viability ([2]; medium concentration, FIG. 2B) | ratio of IL6 secretion to cells viability ([3]; 40 μM) | ratio between IL-6 secretion and viability ([3]; highest concentration, FIG. 5B) | toxicity to keratinocyte cells (HaCaT cells [4]; only at a high concentration)
1 | C=C(C)[C@@H]1CCC(C)=C[C@H]1c1c(O)cc(CCCCC)cc1O [CBD, cannabidiol] | > 140% | 140% | 140% | most pronounced effect | enhanced viability | about 0.6 | about 0.6 | lowest ratio | elevation of TNFα secretion | 0.23 | toxic | toxic | very mild effect |  |  |  | 
2 | CCCCCc1cc(O)c(C/C=C(\C)CCC=C(C)C)c(O)c1 [CBG, cannabigerol] | > 140% |  | 140% |  | enhanced viability |  | about 0.6 |  | elevation of TNFα secretion |  |  |  | very mild effect | lowest ratio | 0.29 | high reduction of the ratio | mild toxicity
